# From patent US8268848B2, “Cyclopropane compound” (Eisai R&D Management Co., Ltd., priority 2010, dated 2012)
# Molecular target: T1, OX2 (Homo sapiens, UniProt O43614)
# T1 sequence (O43614 1-444): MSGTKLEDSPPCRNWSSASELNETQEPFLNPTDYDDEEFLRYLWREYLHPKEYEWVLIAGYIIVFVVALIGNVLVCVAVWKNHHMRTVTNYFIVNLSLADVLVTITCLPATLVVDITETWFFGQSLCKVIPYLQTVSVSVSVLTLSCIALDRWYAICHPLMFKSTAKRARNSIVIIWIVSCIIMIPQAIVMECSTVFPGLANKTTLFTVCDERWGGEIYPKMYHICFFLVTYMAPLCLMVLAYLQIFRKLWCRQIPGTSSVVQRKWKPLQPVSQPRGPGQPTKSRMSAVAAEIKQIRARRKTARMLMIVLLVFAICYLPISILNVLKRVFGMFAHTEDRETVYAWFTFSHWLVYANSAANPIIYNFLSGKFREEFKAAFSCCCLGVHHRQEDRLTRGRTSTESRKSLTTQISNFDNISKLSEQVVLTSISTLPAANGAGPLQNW
# Test: Measurement of orexin receptor-binding ability ([125I]-OX-A, cell membranes, OX2)
# Set-up: expressed in transfected cells; host or cells: CHO cells (membrane preparation)
# Details: OX2 (IC50) nM, membranes of recombinant CHO cells expressing OX2, 0.2 nM [125I]-OX-A
# Experimental: 1. Measurement of Orexin Receptor-Binding Ability
# The assay was carried out using a 96-well Wheat Germ Agglutinin Flash Plate (PerkinElmer). The volume in a single assay well was 100 ul, and the composition of the reaction solution was as follows:
# 25 mM HEPES (pH 7.5), 1 mM CaCl2, 4.5 mM MgCl2, 0.5% BSA (bovine serum albumin), 0.1% sodium azide, 0.05% Tween-20, and 0.2% DMSO.
# Cell membranes were prepared from recombinant CHO cells that expressed OX2 or OX1. The cell membranes were used in an amount of 5 μg protein/assay. […] Finally, the radioactivity of each well was measured using a scintillation counter (TopCount, PerkinElmer).
row,SMILES,IC50 [nM]
1,Cc1ncc(OC[C@@]2(c3cccc(F)c3)C[C@H]2C(=O)Nc2cccc(F)c2)c(C)n1 [Example 83],14
2,Cc1ncc(OC[C@@]2(c3ccc(F)cc3)C[C@H]2C(=O)Nc2cccc(F)c2)c(C)n1 [Example 107],41
3,Cc1ncc(OC[C@@]2(c3cccc(C#N)c3)C[C@H]2C(=O)Nc2ccc(F)cn2)c(C)n1 [Example 116],14
4,COc1cccc([C@]2(COc3cnc(C)nc3C)C[C@H]2C(=O)Nc2ccc(F)cc2)c1 [Example 187],16
5,COCc1nc(C)ncc1OCC1(c2cccc(Cl)c2)CC1C(=O)Nc1ccc(F)cn1 (stereo not shown) [Example 222],68

# Same assay, conditions: membranes of recombinant CHO cells expressing OX2, 0.2 nM [125I]-OX-A; read-out: OX2 (IC50)
row,IC50 [nM],SMILES
1,26,Cc1ncc(OC[C@@]2(c3ccccc3)C[C@H]2C(=O)Nc2ccnc(C(F)(F)F)c2)c(C)n1 [Example 44]
2,19,Cc1ncc(OC[C@@]2(c3ccc(F)cc3)C[C@H]2C(=O)Nc2ccc(F)c(F)c2)c(C)n1 [Example 106]
3,21,Cc1ncc(OC[C@@]2(c3cccc(C#N)c3)C[C@H]2C(=O)Nc2ccc(F)cc2)c(C)n1 [Example 115]
4,29,CCc1nc(C)ncc1OC[C@@]1(c2ccccc2)C[C@H]1C(=O)Nc1cncc(OC)c1 [Example 123]
5,31,CCc1nc(C)ncc1OC[C@@]1(c2ccccc2)C[C@H]1C(=O)Nc1ccc(F)cc1 [Example 124]
6,15,Cc1ncc(OC[C@@]2(c3cc(F)cc(F)c3)C[C@H]2C(=O)Nc2cc(F)ccc2F)c(C)n1 [Example 136]
7,14,COCc1nc(C)ncc1OC[C@@]1(c2ccccc2)C[C@H]1C(=O)Nc1cc(Cl)ccn1 [Example 143]
8,12,COCc1nc(C)ncc1OC[C@@]1(c2ccccc2)C[C@H]1C(=O)Nc1ccc(C(F)(F)F)cn1 [Example 144]
9,9,"COCc1nc(C)ncc1OC[C@@]1(c2ccccc2)C[C@H]1C(=O)Nc1cc(C)c(F)cn1 [Example 145, (1R,2S)-N-(5-fluoro-4-methylpyridin-2-yl)-2-{[(4-methoxymethyl-2-methylpyrimidin-5-yl)oxy]methyl}-2-phenylcyclopropanecarboxamide]"
10,37,COCc1nc(C)ncc1OC[C@@]1(c2ccccc2)C[C@H]1C(=O)Nc1ccc(F)cc1F [Example 146]
11,69,COCc1nc(C)ncc1OC[C@@]1(c2ccccc2)C[C@H]1C(=O)Nc1cc(F)ccc1F [Example 147]
12,20,COCc1nc(C)ncc1OC[C@@]1(c2ccccc2)C[C@H]1C(=O)Nc1cccc(F)c1 [Example 148]
13,10,"COCc1nc(C)ncc1OC[C@@]1(c2ccccc2)C[C@H]1C(=O)Nc1ccc(F)cc1 [Example 149, (1R,2S)-N-(4-fluorophenyl)-2-{[(4-methoxymethyl-2-methylpyrimidin-5-yl)oxy]methyl}-2-phenylcyclopropanecarboxamide]"
14,10,"COCc1nc(C)ncc1OC[C@@]1(c2ccccc2)C[C@H]1C(=O)Nc1ccc(F)c(F)c1 [Example 150, (1R,2S)-N-(3,4-difluorophenyl)-2-{[(4-methoxymethyl-2-methylpyrimidin-5-yl)oxy]methyl}-2-phenylcyclopropanecarboxamide]"
15,7,"Cc1ncc(OC[C@@]2(c3ccc(F)c(F)c3)C[C@H]2C(=O)Nc2ccc(F)c(F)c2)c(C)n1 [Example 170, (1R,2S)-N,2-bis(3,4-difluorophenyl)-2-{[(2,4-dimethylpyrimidin-5-yl)oxy]methyl}cyclopropanecarboxamide]"
16,28,Cc1ncc(OC[C@@]2(c3ccc(F)c(F)c3)C[C@H]2C(=O)Nc2cc(F)ccc2F)c(C)n1 [Example 172]
17,61,COc1cccc([C@]2(COc3cnc(C)nc3C)C[C@H]2C(=O)Nc2ccccn2)c1 [Example 188]
18,7,"COCc1nc(C)ncc1OC[C@@]1(c2cccc(F)c2)C[C@H]1C(=O)Nc1cc(F)ccc1F [Example 197, (1R,2S)-N-(2,5-difluorophenyl)-2-(3-fluorophenyl)-2-{[(4-methoxymethyl-2-methylpyrimidin-5-yl)oxy]methyl}cyclopropanecarboxamide]"
19,27,COCc1nc(C)ncc1OC[C@@]1(c2ccc(F)cc2)C[C@H]1C(=O)Nc1ccccn1 [Example 206]
20,11,COCc1nc(C)ncc1OC[C@@]1(c2ccc(F)cc2)C[C@H]1C(=O)Nc1cccc(F)c1 [Example 208]
21,48,COCc1nc(C)ncc1OC[C@@]1(c2ccc(F)cc2)C[C@H]1C(=O)Nc1ccc(F)cc1F [Example 209]
22,> 60,COCc1nc(C)ncc1OC[C@@]1(c2ccc(F)cc2)C[C@H]1C(=O)Nc1cc(F)ccc1F [Example 210]

row,IC50 [nM],SMILES
1,7,"COCc1nc(C)ncc1OC[C@@]1(c2ccc(F)c(F)c2)C[C@H]1C(=O)Nc1ccc(F)c(F)c1 [Example 214, (1R,2S)-N,2-bis(3,4-difluorophenyl)-2-{[(4-methoxymethyl-2-methylpyrimidin-5-yl)oxy]methyl}cyclopropanecarboxamide]"
2,12,COCc1nc(C)ncc1OC[C@@]1(c2ccc(F)c(F)c2)C[C@H]1C(=O)Nc1cc(F)ccc1F [Example 215]
3,7,"COCc1nc(C)ncc1OC[C@@]1(c2ccc(F)c(F)c2)C[C@H]1C(=O)Nc1ccc(F)cc1F [Example 216, (1R,2S)-N-(2,4-difluorophenyl)-2-(3,4-difluorophenyl)-2-{[(4-methoxymethyl-2-methylpyrimidin-5-yl)oxy]methyl}cyclopropanecarboxamide]"
4,21,COCc1nc(C)ncc1OC[C@@]1(c2ccc(F)c(F)c2)C[C@H]1C(=O)Nc1cccc(F)c1F [Example 217]
5,21,COCc1nc(C)ncc1OC[C@@]1(c2cc(F)cc(F)c2)C[C@H]1C(=O)Nc1cc(C)c(F)cn1 [Example 220]
6,34,COCc1nc(C)ncc1OCC1(c2cccc(Cl)c2)CC1C(=O)Nc1ccc(Cl)cn1 (stereo not shown) [Example 223]
7,27,COCc1nc(C)ncc1OCC1(c2cccc(Cl)c2)CC1C(=O)Nc1ccc(F)cc1 (stereo not shown) [Example 224]
8,7,"COCc1nc(C)ncc1OC[C@@]1(c2cccc(Cl)c2)C[C@H]1C(=O)Nc1cc(C)c(F)cn1 [Example 226, (1R,2S)-2-(3-chlorophenyl)-N-(5-fluoro-4-methylpyridin-2-yl)-2-{[(4-methoxymethyl-2-methylpyrimidin-5-yl)oxy]methyl}cyclopropanecarboxamide]"
9,14,COCc1nc(C)ncc1OCC1(c2cccc(Cl)c2)CC1C(=O)Nc1ccc(C#N)cn1 (stereo not shown) [Example 227]
10,45,COCCc1nc(C)ncc1OC[C@@]1(c2cccc(F)c2)C[C@H]1C(=O)Nc1ccccn1 [Example 228]
11,16,COCCc1nc(C)ncc1OC[C@@]1(c2cccc(F)c2)C[C@H]1C(=O)Nc1ccc(F)cc1 [Example 230]
12,7,"COCc1nc(C)ncc1OC[C@@]1(c2cc(F)cc(OC)c2)C[C@H]1C(=O)Nc1ccc(F)cc1 [Example 231, (1R,2S)-2-(3-fluoro-5-methoxyphenyl)-N-(4-fluorophenyl)-2-{[(4-methoxymethyl-2-methylpyrimidin-5-yl)oxy]methyl}cyclopropanecarboxamide]"
13,6,"COCc1nc(C)ncc1OC[C@@]1(c2cc(F)cc(OC)c2)C[C@H]1C(=O)Nc1ccc(F)cn1 [Example 233, (1R,2S)-2-(3-fluoro-5-methoxyphenyl)-N-(5-fluoropyridin-2-yl)-2-[(4-methoxymethyl-2-methylpyrimidin-5-yl)oxymethyl]cyclopropanecarboxamide]"
14,6,"COCc1nc(C)ncc1OC[C@@]1(c2cc(F)cc(OC)c2)C[C@H]1C(=O)Nc1ccccn1 [Example 235, (1R,2S)-2-(3-fluoro-5-methoxyphenyl)-2-[(4-methoxymethyl-2-methylpyrimidin-5-yl)oxymethyl]-N-(pyridin-2-yl)cyclopropanecarboxamide]"
15,31,COCc1nc(C)ncc1OC[C@@]1(c2ccc(F)c(OC)c2)C[C@H]1C(=O)Nc1ccc(F)cc1 [Example 237]
16,15,COCc1nc(C)ncc1OC[C@@]1(c2ccc(F)c(OC)c2)C[C@H]1C(=O)Nc1ccc(F)c(F)c1 [Example 238]
17,7,"COCc1nc(C)ncc1OC[C@@]1(c2ccc(F)c(OC)c2)C[C@H]1C(=O)Nc1cc(C)c(F)cn1 [Example 239, (1R,2S)-2-(4-fluoro-3-methoxyphenyl)-N-(5-fluoro-4-methylpyridin-2-yl)-2-{[(4-methoxymethyl-2-methylpyrimidin-5-yl)oxy]methyl}cyclopropanecarboxamide]"
18,17,CCc1nc(C)ncc1OC[C@@]1(c2ccc(F)cc2)C[C@H]1C(=O)Nc1cccc(F)c1 [Example 249]
19,14,CCc1nc(C)ncc1OC[C@@]1(c2ccc(F)cc2)C[C@H]1C(=O)Nc1ccc(F)cc1 [Example 250]
20,30,COc1cc(F)cc(C2(COc3cnc(C)nc3C)CC2C(=O)Nc2ccccn2)c1 (stereo not shown) [Example 251]
21,18,COc1cc(F)cc(C2(COc3cnc(C)nc3C)CC2C(=O)Nc2ccc(F)cc2)c1 (stereo not shown) [Example 252]
22,41,COc1cc(F)cc(C2(COc3cnc(C)nc3C)CC2C(=O)Nc2ccc(C#N)cn2)c1 (stereo not shown) [Example 253]
